Literature values in US20090233885A1, “Compositions and Methods for Fat Reduction” (priority 2006, published 2009).

Assays:
[1] = total administered amount per treatment

Row | Substance | cell specificity of effect (adipose and muscle cells) | total administered amount above which cholinergic side effects (nausea, vomiting, diarrhea, flushing, sweating, bradycardia) occur [1]
1 | sodium deoxycholate [DC] | nonspecific effects on both adipose and muscle cells | –
2 | phosphatidylcholine [PC] | – | exceeds 2000 mg per treatment
